Experiments:
Chlorella sp. ATCC 7516 = test: Algal efficacy testing of dry paint film (modified ASTM 5589), Chlorella; format: cell-based
Procedure: (§1) These paints were then diluted with an antimicrobial free acrylic/silicone based paint and mixed to prepare targeted concentrations of antimicrobial compounds for the testing. The total biocides concentrations tested were 125, 250, 500, 1000, 2000 and 5000 ppm. After biocides addition or dilution, the paints were mixed 90 seconds with the horse power shaker (AXEL 75M3372/Agitateur SO-10MI) until uniformity was achieved. Paints containing different antimicrobial compounds at the same levels were mixed together in order to obtain the desired ratio of antimicrobial compounds. After one day, the paints were applied to Schleicher & Schuell filter paper at 280 μm wet film thickness and dried for 3 days at room temperature avoiding direct exposure to sunlight. Square discs (1.6 cm×1.6 cm) were cut out from each panel and were used as the substrate for algal efficacy tests. This sample size allowed for an agar border when the sample disc was placed into the well of the test plate.
(§2) Algal efficacy was tested according to modified ASTM 5589 which is a standard accelerated test method for determining resistance of various coatings (including paints) to algal defacement. To accommodate for high-throughput screening, this method was scaled down from petri dishes to 6-well plates. Bold Modified Basal Freshwater Nutrient Solution was used as growth medium. A single coated filter paper coupon was placed with a pair of sterile forceps at the center of the agar plug (on top) with the painted surface facing upwards. Algal inoculums were prepared by mixing equal concentrations (1×10^6 cfu/ml) and equal volumes of exponentially growing algae cultures.
(§3) Each well that contains a tested coupon was inoculated with 1750 μl of algal suspensions (1×10^6 cfu/ml) making sure that the whole surface (paint film as well as the agar surrounding it) was evenly covered. […]
(§4) At the end of the three week incubation period, the samples were scored for percent inhibition regarding visible algal growth compared to the blank sample (0% inhibition).
(§5) The SI is calculated based on F. C. […]

[1] = test system: Stichococcus bacillaris SAG 379-1a / CCAP 379/1a; test: Algal efficacy testing of dry paint film (modified ASTM 5589), Stichococcus; format: cell-based
Procedure: as §1, §2, §3, §4, §5

[2] = total active in paint, 3 weeks incubation, maximum tested conc given if pass not reached

SMILES | Total conc (minimum inhibitory concentration chosen for SI; pass level ≧75% inhibition) (Chlorella sp. ATCC 7516; [2]) [ppm] | % inhibition (Chlorella sp. ATCC 7516; total conc 1000 ppm, 3 weeks, visible algal growth vs blank) [%] | Total conc (minimum inhibitory concentration chosen for SI; pass level ≧75% inhibition) [1, 2] [ppm] | % inhibition ([1]; total conc 500 ppm, 3 weeks, visible algal growth vs blank) [%] | inhibition at 5000 ppm (Chlorella sp. ATCC 7516; 504 h, total conc 5000 ppm, 3 weeks, visible algal growth vs blank) [%] | inhibition at 5000 ppm ([1]; Stichococcus bacillaris, 504 h, total conc 5000 ppm, 3 weeks, visible algal growth vs blank) [%]
[O-][n+]1ccccc1[S][Zn][S]c1cccc[n+]1[O-] [ZnPT, bis(2-pyridylthio)zinc 1,1′-dioxide] | 1000 | 100 | 500 | 75 |  | 
O=c1[nH]c2c(c(=O)n1C1CCCCC1)CCC2 [Lenacil, 3-cyclohexyl-1,5,6,7-tetrahydrocyclopentapyrimidine-2,4(3H)-dione] |  |  |  |  | 30 | 70

Reference: patent US9288991B2 (Rohm and Haas Company, priority 2012, dated 2016)
